Experimental data: patent US8575158B2, “1-phenyl-substituted heterocyclyl derivatives and their use as prostaglandin D2 receptor modulators” (Actelion Pharmaceuticals Ltd., priority 2010, dated 2013)

Biological target: T1, hCRTH2 receptor (Homo sapiens, UniProt Q9Y5Y4)
T1 construct: expressed in transfected cells; host or cells: HEK293
T1 sequence (Q9Y5Y4 1-395): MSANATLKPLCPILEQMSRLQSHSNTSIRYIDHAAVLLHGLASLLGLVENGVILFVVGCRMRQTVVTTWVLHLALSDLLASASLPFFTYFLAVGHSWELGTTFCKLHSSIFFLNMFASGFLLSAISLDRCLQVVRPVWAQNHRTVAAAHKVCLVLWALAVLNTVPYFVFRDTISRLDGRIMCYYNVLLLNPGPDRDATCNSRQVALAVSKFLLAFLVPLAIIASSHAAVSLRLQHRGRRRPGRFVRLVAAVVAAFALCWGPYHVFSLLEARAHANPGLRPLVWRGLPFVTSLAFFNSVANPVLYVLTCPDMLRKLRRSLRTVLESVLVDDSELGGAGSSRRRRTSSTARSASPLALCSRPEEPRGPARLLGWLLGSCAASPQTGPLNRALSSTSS
Test: Radioligand displacement assay (3H-PGD2) on hCRTH2 receptor membranes
Assay type: binding
Conditions: antagonistic activity

[1] = 3H-PGD2 displacement on HEK293-hCRTH2 membrane fragments
[2] = 3H-PGD2 radioligand displacement, HEK293-hCRTH2 membranes

Row | SMILES | IC50 [1] | IC50 [2]
1 | O=C(O)COc1ccc(F)cc1C1c2ccccc2CCN1C(=O)OCCc1ccccc1Cl (racemic) [Example 177, (±)-1-(2-Carboxymethoxy-5-fluoro-phenyl)-3,4-dihydro-1H-isoquinoline-2-carboxylic acid 2-(2-chloro-phenyl)-ethyl ester] | 27.5 nM | 
2 | Cc1nc2ccccc2n1CCOC(=O)N1CCc2cc(F)ccc2[C@H]1c1cc(Cl)ccc1OCC(=O)O [Example 343] |  | 266 nM
3 | Cc1nn(CCC(=O)N2Cc3ccccc3C2c2cc(Cl)ccc2OCC(=O)O)c2cccc(F)c12 (single isomer, unassigned) [Example 538, (4-Chloro-2-{2-[3-(4-fluoro-3-methyl-indazol-1-yl)-propionyl]-2,3-dihydro-1H-isoindol-1-yl}-phenoxy)-acetic acid] |  | 704 nM
4 | Cc1nn(CCC(=O)N2CCc3cc(F)ccc3[C@H]2c2cc(Cl)ccc2OCC(=O)O)c2ccccc12 [Example 397, (4-Chloro-2-{(S)-6-fluoro-2-[3-(3-methyl-indazol-1-yl)-propionyl]-1,2,3,4-tetrahydro-isoquinolin-1-yl}-phenoxy)-acetic acid] |  | 32.1 nM
5 | Cc1cnn(COC(=O)N2CCc3ccccc3[C@H]2c2cc(Cl)ccc2OCC(=O)O)c1 [Example 292, (S)-1-(2-Carboxymethoxy-5-chloro-phenyl)-3,4-dihydro-1H-isoquinoline-2-carboxylic acid 4-methyl-pyrazol-1-ylmethyl ester] |  | 2.08 nM
6 | O=C(O)COc1ccc(Cl)cc1C1c2ccccc2CCN1C(=O)CCOc1ccc(F)cc1 (racemic) [Example 102, (±)-(4-Chloro-2-{2-[3-(4-fluoro-phenoxy)-propionyl]-1,2,3,4-tetrahydro-isoquinolin-1-yl}-phenoxy)-acetic acid] | 7.53 nM | 
7 | O=C(O)COc1ccc(F)cc1C1c2ccccc2CCN1C(=O)Cc1nc2ccccc2[nH]1 (racemic) [Example 62] | 794 nM | 
8 | O=C(O)COc1ccc(F)cc1C1c2ccccc2CCN1C(=O)CCCc1ccccc1 (racemic) [Example 127, (±)-{4-Fluoro-2-[2-(4-phenyl-butyryl)-1,2,3,4-tetrahydro-isoquinolin-1-yl]-phenoxy}-acetic acid] | 29 nM | 
9 | O=C(O)COc1ccc(Cl)cc1C1c2ccccc2CN1C(=O)CCn1ncc2cccc(Cl)c21 (single isomer, unassigned) [Example 548] |  | 715 nM
10 | O=C(O)COc1ccc(Cl)cc1C1c2ccccc2CCN1C(=O)CCn1ccc2ccc(C(F)(F)F)cc21 (racemic) [Example 370] |  | 80.6 nM
11 | O=C(O)COc1ccc(Cl)cc1[C@@H]1c2ccccc2CCN1C(=O)OCCc1ccccc1 [Example 285, (S)-1-(2-Carboxymethoxy-5-chloro-phenyl)-3,4-dihydro-1H-isoquinoline-2-carboxylic acid phenethyl ester] |  | 3.17 nM
12 | N#Cc1ccc(OCC(=O)O)c(C2c3cc(F)cc(F)c3CCN2C(=O)OCc2ccccc2)c1 (racemic) [Example 44, (±)-1-(2-Carboxymethoxy-5-cyano-phenyl)-5,7-difluoro-3,4-dihydro-1H-isoquinoline-2-carboxylic acid benzyl ester] | 8.34 nM | 
13 | N#Cc1ncccc1OCC(=O)N1CCc2ccccc2C1c1cc(Cl)ccc1OCC(=O)O (racemic) [Example 480] |  | 104 nM
14 | Cc1ncsc1CCOC(=O)N1CCc2c(ccc(F)c2F)[C@H]1c1cc(Cl)ccc1OCC(=O)O [Example 300, (S)-1-(2-Carboxymethoxy-5-chloro-phenyl)-5,6-difluoro-3,4-dihydro-1H-isoquinoline-2-carboxylic acid 2-(4-methyl-thiazol-5-yl)-ethyl ester] |  | 6.39 nM
15 | COc1cc(OC)c2ccn(CCC(=O)N3CCc4ccccc4C3c3cc(Cl)ccc3OCC(=O)O)c2c1 (racemic) [Example 377] |  | 9.71 nM
16 | O=C(O)COc1ccc(Cl)cc1[C@@H]1c2ccc(F)c(F)c2CCN1C(=O)OCc1nc2ccccc2s1 [Example 319, (S)-1-(2-Carboxymethoxy-5-chloro-phenyl)-5,6-difluoro-3,4-dihydro-1H-isoquinoline-2-carboxylic acid benzothiazol-2-ylmethyl ester] |  | 1.44 nM
17 | Cc1cccc(-n2cncc2CCC(=O)N2CCc3ccccc3C2c2cc(Cl)ccc2OCC(=O)O)c1C (racemic) [Example 85, (±)-[4-Chloro-2-(2-{3-[3-(2,3-dimethyl-phenyl)-3H-imidazol-4-yl]-propionyl}-1,2,3,4-tetrahydro-isoquinolin-1-yl)-phenoxy]-acetic acid] | 18.9 nM | 
18 | COc1ccccc1OCC(=O)N1Cc2ccccc2C1c1cc(Cl)ccc1OCC(=O)O (racemic) [Example 502] |  | 56.2 nM
19 | O=C(O)COc1ccc(Cl)cc1C1c2ccccc2CCN1C(=O)CCCc1ccccc1Cl (racemic) [Example 113, (±)-(4-Chloro-2-{2-[4-(2-chloro-phenyl)-butyryl]-1,2,3,4-tetrahydro-isoquinolin-1-yl}-phenoxy)-acetic acid] | 25.5 nM | 
20 | O=C(O)COc1ccc(Cl)cc1C1c2ccccc2CCN1C(=O)COc1cccnc1F (racemic) [Example 482] |  | 199 nM
21 | Cc1cn(CC(=O)N2CCc3ccccc3C2c2cc(Cl)ccc2OCC(=O)O)c2ccccc12 (racemic) [Example 488] |  | 108 nM

Row | SMILES | IC50 [1] | IC50 [2]
22 | O=C(O)COc1ccc(Cl)cc1C1c2ccccc2CCN1C(=O)CCn1ncc2ccccc21 (racemic) [Example 448] |  | 35.4 nM
23 | Cc1nn(CCC(=O)N2Cc3ccccc3C2c2cc(Cl)ccc2OCC(=O)O)c2cccc(Cl)c12 (single isomer, unassigned) [Example 539] |  | 235 nM
24 | O=C(O)COc1ccc(F)cc1C1c2ccccc2CCN1C(=O)CCc1cccc(Cl)c1 (racemic) [Example 132, (±)-(2-{2-[3-(3-Chloro-phenyl)-propionyl]-1,2,3,4-tetrahydro-isoquinolin-1-yl}-4-fluoro-phenoxy)-acetic acid] | 86 nM | 
25 | O=C(O)COc1ccc(F)cc1C1c2ccccc2CCN1C(=O)CNS(=O)(=O)c1ccc(F)c(F)c1 (racemic) [Example 209] | 644 nM | 
26 | Cc1cn(CCC(=O)N2CCc3ccccc3C2c2cc(Cl)ccc2OCC(=O)O)c2ccccc12 (racemic) [Example 447] |  | 13.9 nM
27 | O=C(O)COc1ccc(Cl)cc1[C@@H]1c2ccc(F)cc2CCN1C(=O)OCc1ccccc1 [Example 367] |  | 4.89 nM
28 | O=C(O)COc1ccc(F)cc1C1c2ccccc2CCN1C(=O)Oc1cccc(Cl)c1 (racemic) [Example 178, (±)-1-(2-Carboxymethoxy-5-fluoro-phenyl)-3,4-dihydro-1H-isoquinoline-2-carboxylic acid 3-chloro-phenyl ester] | 687 nM | 
29 | O=C(O)COc1ccc(Cl)cc1[C@@H]1c2ccc(F)cc2CCN1C(=O)OCc1ccccc1F [Example 352, (S)-1-(2-Carboxymethoxy-5-chloro-phenyl)-6-fluoro-3,4-dihydro-1H-isoquinoline-2-carboxylic acid 2-fluoro-benzyl ester] |  | 1.87 nM
30 | Cc1ccc(OCC(=O)N2CCc3ccccc3C2c2cc(Cl)ccc2OCC(=O)O)c(C)c1 (racemic) [Example 456] |  | 43.6 nM
31 | O=C(O)COc1ccc(F)cc1C1c2ccccc2CCN1C(=O)Cc1ccccc1 (racemic) [Example 124, (±)-[4-Fluoro-2-(2-phenylacetyl-1,2,3,4-tetrahydro-isoquinolin-1-yl)-phenoxy]-acetic acid] | 417 nM | 
32 | O=C(O)COc1ccc(Cl)cc1C1c2ccccc2CCN1C(=O)[C@@H]1C[C@H]1c1ccccc1F (mixture of isomers) [Example 160] | 16.4 nM | 
33 | O=C(O)COc1ccc(Cl)cc1[C@@H]1c2ccc(F)cc2CCN1C(=O)OCc1nc2ccccc2s1 [Example 344, (S)-1-(2-Carboxymethoxy-5-chloro-phenyl)-6-fluoro-3,4-dihydro-1H-isoquinoline-2-carboxylic acid benzothiazol-2-ylmethyl ester] |  | 37.8 nM
34 | O=C(O)COc1ccc(Cl)cc1[C@@H]1c2ccc(F)c(F)c2CCN1C(=O)OCc1cccc(F)c1F [Example 351, (S)-1-(2-Carboxymethoxy-5-chloro-phenyl)-5,6-difluoro-3,4-dihydro-1H-isoquinoline-2-carboxylic acid 2,3-difluoro-benzyl ester] |  | 3.27 nM
35 | COc1ccc([C@@H]2C[C@H]2C(=O)N2CCc3ccccc3C2c2cc(Cl)ccc2OCC(=O)O)cc1 (mixture of isomers) [Example 417] |  | 187 nM
36 | O=C(O)COc1ccc(F)cc1C1c2ccccc2CCN1C(=O)Cc1ccc2cccnc2c1 (racemic) [Example 48, (±)-{4-Fluoro-2-[2-(2-quinolin-7-yl-acetyl)-1,2,3,4-tetrahydro-isoquinolin-1-yl]-phenoxy}-acetic acid] | 287 nM | 
37 | O=C(O)COc1ccc(F)cc1C1c2ccccc2CCN1C(=O)OCc1ccccc1Cl (racemic) [Example 165] | 5 nM | 
38 | O=C(O)COc1ccc(Cl)cc1[C@@H]1c2ccc(F)c(F)c2CCN1C(=O)OCc1nccs1 [Example 299, (S)-1-(2-Carboxymethoxy-5-chloro-phenyl)-5,6-difluoro-3,4-dihydro-1H-isoquinoline-2-carboxylic acid thiazol-2-ylmethyl ester] |  | 6.83 nM
39 | O=C(O)COc1ccc(Cl)cc1C1c2ccc(F)c(F)c2CN1C(=O)OCc1ccccc1 (racemic) [Example 559] |  | 11.2 nM
40 | COc1ccc2ccn(CCC(=O)N3CCc4ccccc4C3c3cc(Cl)ccc3OCC(=O)O)c2c1 (racemic) [Example 390] |  | 7.52 nM
41 | COc1ccccc1COCC(=O)N1CCc2ccccc2C1c1cc(F)ccc1OCC(=O)O (racemic) [Example 198, (±)-(4-Fluoro-2-{2-[2-(2-methoxy-benzyloxy)-acetyl]-1,2,3,4-tetrahydro-isoquinolin-1-yl}-phenoxy)-acetic acid] | 19 nM | 
